“And” between values parts separate entries of the source, which are not always exact repeats. Equal values may be shown once.
Experiments:
HCFs = experiment: Bulk RNA sequencing and GSEA of human cardiac fibroblasts; format: cell-based; settings: EF-1 32 µM, 16 h, log2-fold change >0, P adj <0.05
Procedure: iAMs were seeded at a density of 6 ×10^6 cells/mL in differentiation medium in 75-cm^2 cell culture flasks (Greiner Bio-One, 658175) and incubated for 9 days (d0 = day of seeding). HCF were seeded at a density of 3 × 10^6 cells/mL in fibroblast medium in 75-cm^2 cell culture flasks. […] Next, cells were lysed using 350 µL buffer RLT (Qiagen) supplemented with β-mercaptoethanol (100:1; Merck, 444203). Total RNA was isolated using the RNeasy Micro Kit (Qiagen, 74104) according to the manufacturer’s protocol, with an extra step of DNase digestion. The concentration and quality of RNA were determined using a Qubit fluorometer (Thermo Fisher Scientific) and 2100 Agilent BioAnalyzer (Agilent Technologies), respectively. Samples with an RNA integrity number >7 were used for library preparation. Sequencing libraries were prepared by Genewiz/Azenta (Leipzig) on cDNA prepared from polyadenylated mRNA. Libraries were sequenced using a NovaSeq 6000 (Illumina) with a read length of 2 ×150 bp.
Gene expression was quantified at the transcript level using Salmon (v1.10.0)[60], with the validatMappings and -gcBias parameters switched on, to the Rnor_6.0 or GRCh38 transcriptome. […] Functional enrichment of DEGs was determined using a hypergeometric test against the Gene Ontology database by using the ClueGO (v2.5.7)[64] module of Cytoscape (v3.9.1)[65] with Benjamini–Hochberg adjusted (FDR) P < 0.05. […]

iAMs = experiment: Cardiomyocyte hypertrophy assay: CSA of iAMs after AngII, also with PD98059; format: cell-based, rat
Procedure: iAMs were seeded at a density of 10^4 cells/well in differentiation medium in 24-well plates (Greiner Bio-One, 662160) and differentiated over 9 days (d0 = day of seeding). […] To determine CSA, cells were fixed with 4% paraformaldehyde (PFA, Thermo Fisher Scientific, 043368.9 M) for 30 min at 4 °C. Cells were washed thrice with PBS and permeabilized by incubation with 0.1% Triton X-100 (Merck, 10789704001) for 10 min at RT. iAMs were stained with Alexa Fluor 568 phalloidin (Thermo Fisher Scientific, A12380) in 1% BSA-PBS solution for 1 h at RT. After washing 3 times with PBS, DAPI (Merck, D9542) was added. Images were obtained by fluorescence microscopy (Celena S).
CSA was quantified using an automated algorithm, custom-made in Python[67]. The mode mD (maximum of the histogram) of DAPI intensities (excluding 0) was determined and binary segmentation of nuclei was created with threshold mD + SDD (with SDD the SD of DAPI intensities). Distinct objects with an area less than 500 pixels and nuclei where the average overlapping iAM signal was less than mdA + 0.5 SDA (with mdA and SDA the median and SD of the Alexa Fluor 568 intensity, respectively) were removed. […]

[1] = system: mouse model of AngII-induced myocardial fibrosis; experiment: AngII-induced myocardial fibrosis mouse model, 1 week, heart mRNA by RT-qPCR; format: in vivo
Procedure: Four weeks after implantation, cardiac ultrasound was performed, mice were euthanized, and hearts were collected. A similar set-up was used for the 1-week study (Alzet, model 1007D) in male mice (n = 9-10 mice in every group).
RNA was extracted using Nucleospin RNA XS (Macherey-Nagel, 740902.50) according to the manufacturer’s instructions. For cDNA synthesis, total RNA was added to a mixture containing buffer with random hexamers and reverse transcriptase enzyme (TaqMan reverse transcription reagents, Applied biosystems, N8080234) after which samples were incubated for 10 min at 25 °C, 30 min at 48 °C, and 5 min at 95 °C. RT-qPCR was performed on QuantStudio 3 Real-time PCR system (Applied Biosystems) using Taqman Universal PCR Master Mix (Applied Biosystems, 4304437) and Taqman primers according to the manufacturer’s instructions. Settings were as follows: […] followed by 10 min at 95 °C, 40 cycles (45 cycles for ERBB4) of denaturation at 95 °C for 15 s, and 1 min at 60 °C. All reactions were run in duplicate, and all data were normalized against housekeeping genes glyceraldehyde-3-phosphate dehydrogenase (GAPDH), beta-actin (ACTB), or phosphoglycerate kinase 1 (PGK1). Expression levels were calculated using the comparative cycle method and expressed as fold change (FC) to appropriate controls. The following TaqMan primers were used (Thermo Fisher Scientific): GAPDH (Hs02758991_g1, Mm99999915_g1 and Rn01775763_g1), PGK1 (Hs99999906_m1), ID2 (Hs04187239_m1), BMPR1B (Hs01010965_m1), CACNA2D4 (Hs00297782_m1), DUSP2 (Hs00358879_m1), NR4A1 (Hs00374226_m1), SGK1 (Hs00178612_m1), COL1A1 (Mm00801666_g1), COL3A1 (Hs00943809_m1 and Mm00802305_g1), ERBB4 (Hs00955525_m1 and Rn00572447_m1), ACTB (Mm02619580_g1) and ANP (Mm01255747_g1).

[2] = AngII/EF-1, male wild type mice, EF-1 2 mg/kg/day, single animals, 2 mg/kg/day

O=C(NC1CC1)C(Sc1nc2ccccc2c(=O)n1C1CCCC1)c1ccccc1 (stereo not drawn) [EF-1]
number of significantly downregulated genes compared to Veh (HCFs): 507 | number of significantly upregulated genes compared to Veh (HCFs): 336 | anti-hypertrophic effect of EF-1 under ERK1/2 pathway inhibition (PD98059) (in words) (iAMs): blocked upon inhibition of the ERK1/2 pathway | effect on AngII-induced increase in CSA (in words) (iAMs; EF-1 4–32 µM): dose-dependently attenuated | Col1a1 mRNA in heart, normalized FC compared to Ctrl [1, 2]: 0.89 and 1.45 and 5.23 and 1.1 and 0.7 and 1.4 and 1.83 and 0.45 | Col3a1 mRNA in heart, normalized FC compared to Ctrl [1, 2]: 0.3868 and 1.25 and 2.15 and 0.45 and 0.1877 and 2.4002 and 0.7979 and 0.9965 | Nppa mRNA in heart, normalized FC compared to Ctrl [1, 2]: 0.84 and 6.51 and 3.53 and 3.93 and 1.08 and 3.77 and 5.6 and 2.74 and 3.12 | effect on AngII-induced Col1a1 and Col3a1 mRNA expression (in words) ([1]; male wild type mice): significantly reduced | effect on atrial natriuretic peptide (Nppa) expression (in words) ([1]; male wild type mice): significantly decreased
